Results from PubChem BioAssay AID248 (DTP/NCI, 2004).
“And” between values parts separate entries of the source, which are not always exact repeats. Identical values can stand only once. Toxic doses and inconclusive results are not listed. No stated cut-off is given here; in the data, active means T/C of 150% or more; inactive means T/C below 125%.

Test system: L1210 leukemia ip in BDF1 mice, survival T/C
Assay: NCI In Vivo Anticancer Drug Screen. Data for tumor model L1210 Leukemia (intraperitoneal) in B6D2F1 (BDF1) mice
Conditions: endpoint: mean survival time, higher = longer survival
Outline: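 Mice bearing the transplanted tumor received compound or vehicle. Survival of the treated group was divided by that of the vehicle-treated control group to give the ratio.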

[1] = dose: 100.0 mg/kg/injection, schedule: Q04DX003 (ip), vehicle: Klucel (hydroxypropylcellulose) (HPC)
[2] = dose: 200.0 mg/kg/injection, schedule: Q04DX003 (ip), vehicle: Klucel (hydroxypropylcellulose) (HPC)
[3] = dose: 100.0 mg/kg/injection, schedule: Q01DX001 (ip), vehicle: saline
[4] = dose: 100.0 mg/kg/injection, schedule: Q01DX009 (ip), vehicle: saline
[5] = dose: 100.0 mg/kg/injection, schedule: Q04DX003 (ip), vehicle: saline
[6] = dose: 200.0 mg/kg/injection, schedule: Q01DX009 (ip), vehicle: saline
[7] = dose: 200.0 mg/kg/injection, schedule: Q04DX003 (ip), vehicle: saline
[8] = dose: 400.0 mg/kg/injection, schedule: Q04DX003 (ip), vehicle: saline
[9] = dose: 100.0 mg/kg/injection, schedule: Q01DX009 (ip), vehicle: Klucel (hydroxypropylcellulose) (HPC)
[10] = dose: 200.0 mg/kg/injection, schedule: Q01DX009 (ip), vehicle: Klucel (hydroxypropylcellulose) (HPC)
[11] = dose: 400.0 mg/kg/injection, schedule: Q01DX009 (ip), vehicle: Klucel (hydroxypropylcellulose) (HPC)
[12] = dose: 400.0 mg/kg/injection, schedule: Q04DX003 (ip), vehicle: Klucel (hydroxypropylcellulose) (HPC)
[13] = dose: 200.0 mg/kg/injection, schedule: Q01DX009 (ip), vehicle: other
[14] = dose: 100.0 mg/kg/injection, schedule: Q04DX002 (ip), vehicle: Klucel (hydroxypropylcellulose) (HPC)
[15] = dose: 200.0 mg/kg/injection, schedule: Q04DX002 (ip), vehicle: Klucel (hydroxypropylcellulose) (HPC)
[16] = dose: 25.0 mg/kg/injection, schedule: Q01DX009 (ip), vehicle: saline with Tween-80
[17] = dose: 100.0 mg/kg/injection, schedule: Q01DX009 (ip), vehicle: saline with Tween-80
[18] = dose: 200.0 mg/kg/injection, schedule: Q01DX009 (ip), vehicle: saline with Tween-80
[19] = dose: 400.0 mg/kg/injection, schedule: Q01DX009 (ip), vehicle: saline with Tween-80
[20] = dose: 100.0 mg/kg/injection, schedule: Q04DX003 (ip), vehicle: saline with Tween-80
[21] = dose: 200.0 mg/kg/injection, schedule: Q04DX003 (ip), vehicle: saline with Tween-80
[22] = dose: 100.0 mg/kg/injection, schedule: Q01DX001 (ip), vehicle: Klucel (hydroxypropylcellulose) (HPC)
[23] = dose: 200.0 mg/kg/injection, schedule: Q01DX001 (ip), vehicle: Klucel (hydroxypropylcellulose) (HPC)
[24] = dose: 400.0 mg/kg/injection, schedule: Q01DX001 (ip), vehicle: Klucel (hydroxypropylcellulose) (HPC)

Measured: T/C

OC1(C2(O)CCCCC2)CCCCC1
inactive: dose: 100.0 mg/kg/injection, schedule: Q04DX002 (ip), vehicle: gum acacia 101 % of control | dose: 200.0 mg/kg/injection, schedule: Q04DX002 (ip), vehicle: gum acacia 104 % of control | dose: 400.0 mg/kg/injection, schedule: Q04DX002 (ip), vehicle: gum acacia 96 % of control

Nc1ccc(CCCCc2c(N)nc(N)nc2N)cc1
inactive: [1] 97 % of control | [2] 93 % of control

CCOC(=O)C1=NN(c2ccccc2)C(=O)C1N=Nc1ccc(S(=O)(=O)Nc2nnc(C)s2)cc1 (configuration not stated)
inactive: [3] 110 % of control | dose: 200.0 mg/kg/injection, schedule: Q01DX001 (ip), vehicle: saline 105 % of control | dose: 400.0 mg/kg/injection, schedule: Q01DX001 (ip), vehicle: saline 98 % of control

CC1=NC(C(=O)O)C(=O)O1 (configuration not stated)
inactive: [4] 98 % of control | [5] 105 % of control | [6] 93 % of control | [7] 97 % of control | [8] 103 % of control

NC(=O)c1ccc(C(F)(F)F)cc1O
inactive: [9] 95 % of control | [1] 100 % of control | [10] 95 % of control | [2] 97 % of control | [11] 95 % of control | [12] 95 % of control

COc1cc2c3c(c1)-c1nc4ccccc4cc1CN3CCC2
inactive: dose: 100.0 mg/kg/injection, schedule: Q01DX009 (ip), vehicle: other 102 % of control | dose: 100.0 mg/kg/injection, schedule: Q04DX003 (ip), vehicle: other 97 % of control | [13] 102 % of control | dose: 200.0 mg/kg/injection, schedule: Q04DX003 (ip), vehicle: other 100 % of control | dose: 400.0 mg/kg/injection, schedule: Q01DX009 (ip), vehicle: other 114 % of control | dose: 400.0 mg/kg/injection, schedule: Q04DX003 (ip), vehicle: other 97 % of control

CCCCCC(=O)N1CCCCC1CC (configuration not stated)
inactive: [14] 92 % of control | [15] 92 % of control

Cn1ncc(C(=O)O)c1N
inactive: [16] 102 % of control | dose: 50.0 mg/kg/injection, schedule: Q01DX009 (ip), vehicle: saline with Tween-80 111 % of control | [17] 100 % of control | [18] 94 % of control | [19] 96 % of control

Cc1cccc(Cl)c1NC(=O)c1cc([N+](=O)[O-])cc([N+](=O)[O-])c1
inactive: [9] 100 % of control | [10] 96 % of control

CC(=O)CN1C(=O)c2ccccc2C1=O
inactive: [9] 102 % of control | [1] 111 % of control | [10] 108 % of control | [2] 104 % of control | [11] 105 % of control | [12] 98 % of control

CCC(=O)OC(CC=C(C)C)(c1ccccc1)C(C)CN(C)C (configuration not stated)
inactive: [4] 100 % of control

CN(C)c1ccc(-c2cc[n+](C)cc2)cc1
inactive: dose: 3.13 mg/kg/injection, schedule: Q04DX003 (ip), vehicle: saline 101 % of control | dose: 6.25 mg/kg/injection, schedule: Q04DX003 (ip), vehicle: saline 101 % of control | dose: 12.5 mg/kg/injection, schedule: Q04DX003 (ip), vehicle: saline 104 % of control

Cc1ccc(C)c(N=C=O)c1
inactive: dose: 6.25 mg/kg/injection, schedule: Q01DX009 (ip), vehicle: saline with Tween-80 98 % of control | dose: 12.5 mg/kg/injection, schedule: Q01DX009 (ip), vehicle: saline with Tween-80 96 % of control | [16] 93 % of control | [20] 104 % of control | [21] 109 % of control

O=C(Oc1ccc(Cl)cc1Cl)c1ccccc1
inactive: [17] 110 % of control | [20] 98 % of control | [18] 110 % of control | [21] 96 % of control | [19] 113 % of control | dose: 400.0 mg/kg/injection, schedule: Q04DX003 (ip), vehicle: saline with Tween-80 101 % of control

CNC(=O)Oc1ccc2ccccc2c1[N+](=O)[O-]
inactive: dose: 75.0 mg/kg/injection, schedule: Q01DX001 (ip), vehicle: other 101 % of control

O=C(O)c1ccccc1S(=O)(=O)c1ccccc1
inactive: [17] 109 % of control | [18] 101 % of control | [19] 103 % of control

CN(N=O)C(=O)C(=O)N(C)N=O
inactive: dose: 9.0 mg/kg/injection, schedule: Q01DX001 (ip), vehicle: other 109 % of control | dose: 13.0 mg/kg/injection, schedule: Q01DX001 (ip), vehicle: other 112 % of control | dose: 15.0 mg/kg/injection, schedule: Q01DX Z (ip), vehicle: saline 100 % of control | dose: 30.0 mg/kg/injection, schedule: Q01DX Z (ip), vehicle: saline 103 % of control | dose: 60.0 mg/kg/injection, schedule: Q01DX Z (ip), vehicle: saline 92 % of control | dose: 120.0 mg/kg/injection, schedule: Q01DX Z (ip), vehicle: saline 94 % of control

O=C(O)c1ccc(Cl)cc1Nc1ccc(F)cc1
inactive: [22] 100 % of control | [9] 96 % of control | [23] 100 % of control | [24] 100 % of control

O=C(c1ccccc1)N1CC1(c1ccccc1)C1(c2ccccc2)SCCCS1 (configuration not stated)
inactive: [22] 95 % of control | [23] 98 % of control | [24] 92 % of control

O=C(/C=C/c1ccccc1)c1ccccc1
inactive: [22] 98 % of control | [14] 105 % of control | [1] 100 % of control | [23] 99 % of control | [15] 105 % of control | [2] 104 % of control | [24] 94 % of control | dose: 400.0 mg/kg/injection, schedule: Q04DX002 (ip), vehicle: Klucel (hydroxypropylcellulose) (HPC) 94 % of control | [12] 98 % of control

CC(=O)Oc1ccc2c(c1)C(=O)CCC=C2
inactive: dose: 50.0 mg/kg/injection, schedule: Q01DX009 (ip), vehicle: other 92 % of control | [13] 92 % of control

O=C1OC(=O)C(Br)=C1Br
inactive: dose: 25.0 mg/kg/injection, schedule: Q04DX002 (ip), vehicle: saline 101 % of control | dose: 50.0 mg/kg/injection, schedule: Q01DX009 (ip), vehicle: saline 94 % of control | dose: 50.0 mg/kg/injection, schedule: Q04DX002 (ip), vehicle: saline 97 % of control | [4] 91 % of control | dose: 100.0 mg/kg/injection, schedule: Q04DX002 (ip), vehicle: saline 97 % of control | [5] 95 % of control | [6] 107 % of control | dose: 200.0 mg/kg/injection, schedule: Q04DX002 (ip), vehicle: saline 93 % of control and 103 % of control | [7] 98 % of control

N/C=C(/NC(=O)c1ccccc1C(N)=O)C(=O)O
inactive: dose: 75.0 mg/kg/injection, schedule: Q01DX001 (ip), vehicle: saline 100 % of control | dose: 150.0 mg/kg/injection, schedule: Q01DX001 (ip), vehicle: saline 100 % of control | dose: 300.0 mg/kg/injection, schedule: Q01DX001 (ip), vehicle: saline 91 % of control

CNc1ncnc2nc(Cl)[nH]c12
inactive: [3] 108 % of control

Oc1cc(Cl)ccc1Cl
inactive: dose: 75.0 mg/kg/injection, schedule: Q01DX009 (ip), vehicle: saline 90 % of control | [5] 95 % of control | dose: 150.0 mg/kg/injection, schedule: Q01DX009 (ip), vehicle: saline 101 % of control | [7] 100 % of control | dose: 300.0 mg/kg/injection, schedule: Q01DX009 (ip), vehicle: saline 96 % of control | [8] 98 % of control
